We go through eleven compounds from PubChem BioAssay (NCI).

Common to all, as to assay: NCI tumour cell line growth inhibition, 48 h
In experiment [1] the test system is ACHN renal.
Experiment [2] concerns SK-OV-3 ovarian.
Experiment [3] deals with MOLT-4 leukemia.
The test system of experiment [4] is M14 melanoma.
Experiment [5] has as its system NCI-H522 lung.
Experiment [6] relates to IGROV1 ovarian.
In experiment [7] the test system is SNB-19 CNS.
In experiment [8] the test system is NCI-H23 lung.
Experiment [9] has as its system UACC-257 melanoma.
The subject of experiment [10] is DU-145 prostate.

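How tested: cells in 96-well plates exposed to compound for 48 hours at five concentrations. GI50 marks 50% less growth. TGI: total growth inhibition.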 Where only a bound is given, the exact number is not on record here.

As for `COC(=O)C1=C(C(=O)OC)C2=S(SC3=C2CCCC3)S1` (configuration not stated), the TGI in experiment [1] is greater than 100 µM; in experiment [2] it was greater than 100 µM; in experiment [3], greater than 100 µM; in experiment [4], greater than 100 µM; in experiment [5], 11.3 µM; in experiment [6], greater than 100 µM. Further, the TGI in [7], in experiment [8] and in experiment [9] was greater than 100 µM each time.
On to `C[Si](C)(C)/C(I)=C/CO`, for which the TGI in experiment [1] was 46.4 µM; in experiment [2] it was greater than 100 µM; in experiment [3], 35.3 µM; in experiment [4], greater than 100 µM; in [5] it was 34.5 µM; in experiment [6], greater than 100 µM. Besides, the figures for the TGI in experiment [7], in experiment [8] and in experiment [9] were 64.7 µM, 39.5 µM and 45.2 µM, respectively.
Turning to `O=C(NNc1ccccc1)C(=O)NNc1ccccc1`, the GI50 is 2.03 µM in experiment [1]; greater than 100 µM in experiment [2]; 1.6 µM in [3]; greater than 100 µM in [5]; greater than 100 µM in experiment [6]; greater than 100 µM in [7]. Moreover, the GI50 was greater than 100 µM in experiment [8], greater than 100 µM in experiment [9] and 20.8 µM in experiment [10]. Moreover, the TGI in [1], in experiment [2], in experiment [3], in experiment [5], in experiment [6] and in [7] was greater than 100 µM throughout. The TGI in experiment [8], in [9] and in [10] was greater than 100 µM each time.
As to `[N-]=[N+]=N/C1=C/CCCCC(=O)C1`, the TGI in experiment [2], in experiment [3], in [4], in [5], in [6] and in [7] was greater than 100 µM in each case. Also, the TGI in [8] and in [9] was greater than 100 µM each time.
Consider `COc1cc(/C=C\c2cc(OC)c(OC)c(OC)c2)cc(N/C=C\C(=O)c2cc(OC)c(OC)c(OC)c2)c1OC`, for which the GI50 in [1] is 3.99 µM; in [2] it was 2.91 µM; in experiment [3], 4.62 µM; in experiment [6], 6.06 µM; in [7] it was 4.49 µM; in experiment [8] it was 4.22 µM. For the same compound, the GI50 in experiment [9] is greater than 100 µM; in experiment [10] it was 3.64 µM. Further, the TGI in experiment [1], in [2], in experiment [3], in experiment [6], in experiment [7] and in experiment [8] was greater than 100 µM in each case. Besides, the TGI in [9] and in experiment [10] was greater than 100 µM each time.
On to `Cn1cc(-c2csc(-c3c[nH]c4ccc(Br)cc34)n2)c2cnccc21`, for which the GI50 in experiment [4] was 1.87 µM; in [7], 3.67 µM; in experiment [8] it was 2.73 µM; in experiment [10], 2.25 µM. Besides, the TGI in [4] was 3.61 µM; in experiment [7] it was greater than 100 µM; in experiment [8], 8.79 µM; in [10], 5.62 µM.
As for `CN(C)c1ccc(N=Nc2ccccn2)c(O)c1`, the GI50 in experiment [1] is 0.271 µM; in experiment [2], 0.42 µM; in [3], 0.243 µM; in [5] it was 0.372 µM; in experiment [6], 0.317 µM; in experiment [7], 0.501 µM. In addition, the values for the GI50 in experiment [8], in [9] and in experiment [10] were 0.564 µM, 1.24 µM and 0.481 µM, respectively. The TGI was greater than 100 µM in experiment [1]; greater than 28.3 µM in experiment [2]; greater than 87.8 µM in experiment [3]; greater than 100 µM in experiment [6]; greater than 100 µM in experiment [7]; greater than 100 µM in experiment [8]. For the same compound, the results for the TGI in [9] and in [10] were 9.04 µM and greater than 100 µM, respectively.
With `CC(=O)N1CCC(=O)/C(=C/c2ccccc2)C1`, the TGI in experiment [1] was 56.8 µM; in experiment [2], greater than 100 µM; in experiment [3], greater than 100 µM; in experiment [4] it was greater than 100 µM; in experiment [6], 46.4 µM; in experiment [7], greater than 100 µM. In addition, the TGI in experiment [8] and in [9] was greater than 100 µM each time.
For `COc1ccc(/C(=C\C=C(C#N)C#N)Sc2nc3ccccc3s2)cc1`, the GI50 was 14.3 µM in [2]; 2.52 µM in [4]; 14.6 µM in [5]; 10 µM in experiment [6]; 12.6 µM in [7]; 9.46 µM in [8]. The GI50 in experiment [9] is 10.3 µM. Also, the TGI in experiment [2] was 29.5 µM; in [4] it was 9.08 µM; in experiment [5] it was greater than 50 µM; in experiment [6], 46.4 µM; in [7], 29.6 µM; in experiment [8], 20 µM. In experiment [9], the TGI was determined as 23.7 µM.
Consider `Cc1ccc(S(=O)OCc2c(C)c(C)c(COS(=O)c3ccc(C)cc3)c(C)c2C)cc1` (configuration not stated), for which the TGI in [1], in experiment [2], in experiment [3], in experiment [4], in experiment [5] and in experiment [6] was greater than 100 µM each time. For the same compound, the TGI in experiment [7], in experiment [8] and in experiment [9] was greater than 100 µM throughout.
On to `COc1cccc2c1C(=O)c1c(O)c3c(c(O)c1C2=O)C[C@@](O)(/C(C)=N/NC(=O)c1ccc(Cl)cc1)C[C@@H]3OC1CC(N)C(O)C(C)O1` (some centres not stated), for which the GI50 was 0.181 µM in experiment [1]; 0.481 µM in experiment [2]; 0.0545 µM in experiment [3]; 0.138 µM in [6]; 0.162 µM in [7]; 0.194 µM in [8]. Moreover, the GI50 in experiment [9] is 0.188 µM; in [10], 0.271 µM. The TGI in experiment [1] is 1.43 µM; in experiment [2], 13.8 µM; in experiment [3] it was 3.31 µM; in [6], 2.74 µM; in [7] it was 1.9 µM; in [8], 1.12 µM. For the same compound, the TGI in [9] is 0.867 µM; in experiment [10], 13.5 µM.
